This note sets out measurements from US9023789B2, “Amylin analogs and pharmaceutical compositions thereof” (Novo Nordisk A/S, priority 2012, dated 2015).

Molecules are shown by their SMILES. pIC50: −log10 of the molar value. Numbered stars: 1 amine (or outer) side, 2 acyl side, 3 side chain; on linkers, the order of the positions; unused ones are H or OH. Bridge positions count the residues as written; N and C are the ends. Side chains are listed from the residue outwards. Peptide text beside a SMILES is read from it. * marks the point of attachment. C20 diacid = O=C(O)CCCCCCCCCCCCCCCCCCC(=O)*; γGlu = O=C(O)[C@H](CCC(=O)[*:2])N[*:1]; AEEA = NCCOCCOCC(=O)O

The target in experiment [1] is T1, human amylin 3(a) receptor (human calcitonin receptor + RAMP-3) in BHK570 cells (Homo sapiens, UniProt O60896+P30988).
T1 construct: expressed in transfected cells
Kind of experiment: ASSAY (II)a functional assay, human amylin receptor (CRE luciferase). The experiment is classed as cell-based. The procedure, abridged: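 Read-out: CRE-driven luciferase luminescence, single photon counting, after 30 min at room temperature with LucLite. BHK cells expressed calcitonin receptor alone or with RAMP-3 (amylin 3(a)). Cells were stimulated 3 h at 37° C in DMEM, 10% FBS, 10 mM Hepes, pH 7.4.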

Experiment [2] deals with T2, human amylin receptor (membranes from Amylin 3(a)/CRE-luc cells) (Homo sapiens, UniProt O60896+P30988).
T2 construct: expressed in transfected cells
T2 sequence (P30988 25-474): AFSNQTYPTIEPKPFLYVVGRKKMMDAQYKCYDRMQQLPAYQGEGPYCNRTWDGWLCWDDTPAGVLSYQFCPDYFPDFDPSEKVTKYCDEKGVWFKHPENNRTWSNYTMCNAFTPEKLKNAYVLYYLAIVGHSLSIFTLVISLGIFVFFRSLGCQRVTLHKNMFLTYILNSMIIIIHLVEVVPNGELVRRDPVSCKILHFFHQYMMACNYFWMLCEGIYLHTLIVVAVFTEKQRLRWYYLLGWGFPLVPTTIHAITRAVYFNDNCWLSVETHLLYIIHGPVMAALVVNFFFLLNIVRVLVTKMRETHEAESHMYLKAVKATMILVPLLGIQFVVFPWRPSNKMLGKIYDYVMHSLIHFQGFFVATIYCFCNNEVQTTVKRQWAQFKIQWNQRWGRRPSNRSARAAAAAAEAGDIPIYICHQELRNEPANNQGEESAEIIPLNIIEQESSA
T2 sequence (O60896 24-148 partner): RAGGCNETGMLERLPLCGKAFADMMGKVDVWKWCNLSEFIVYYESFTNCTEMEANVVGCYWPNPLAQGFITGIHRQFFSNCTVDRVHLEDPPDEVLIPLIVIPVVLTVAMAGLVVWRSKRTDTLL
As to the kind of experiment: ASSAY (V) binding to the human amylin receptor (SPA, 125I-rat amylin).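 Further: competition binding of cell membranes (35 ng/µL) mixed with SPA beads in 384-well plates at 40 µL total volume, read by scintillation counting.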

A further experiment addresses T3, rat calcitonin receptor (Rattus norvegicus, UniProt P32214).
T3 construct: expressed in transfected cells; host or cells: BHK tk'ts 13 (transient, FuGENE 6), membranes
T3 sequence (P32214 25-479 isoform P32214-2 limits assumed): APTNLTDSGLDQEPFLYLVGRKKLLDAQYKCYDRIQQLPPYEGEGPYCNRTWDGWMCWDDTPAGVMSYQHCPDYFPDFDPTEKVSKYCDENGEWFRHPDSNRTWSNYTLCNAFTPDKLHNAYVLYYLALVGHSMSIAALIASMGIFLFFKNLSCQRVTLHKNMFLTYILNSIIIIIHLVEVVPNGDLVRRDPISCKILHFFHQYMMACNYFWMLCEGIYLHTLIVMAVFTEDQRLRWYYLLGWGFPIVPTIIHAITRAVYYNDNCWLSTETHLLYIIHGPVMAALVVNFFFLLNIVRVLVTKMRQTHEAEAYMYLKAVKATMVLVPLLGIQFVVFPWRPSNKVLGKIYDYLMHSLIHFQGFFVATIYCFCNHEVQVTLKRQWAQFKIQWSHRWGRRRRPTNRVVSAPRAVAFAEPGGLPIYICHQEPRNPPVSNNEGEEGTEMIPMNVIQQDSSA
Kind of experiment: ASSAY (VIII) binding to the rat calcitonin receptor. The following applies: Table 7, read-out: rCTR bind IC50. The procedure, abridged:
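BHK tk′ts 13 cells, transient rat calcitonin receptor transfection; DMEM + 10% FBS; harvest ~48 h post-transfection; membrane prep.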

[3] abbreviates: hCTR funct. EC50 divided by hAmylin-R funct. EC50.
Setting [4] is: human functional selectivity: hCTR funct. EC50 / hAmylin-R funct. EC50.
[5] abbreviates: Table 5, selectivity, hCTR bind IC50 / hAmylin-R bind IC50.
[6] abbreviates: Table 5a, selectivity, hCTR bind IC50 / hAmylin-R bind IC50.
Where [7] appears, read: Table 5b, selectivity, hCTR bind IC50 / hAmylin-R bind IC50.
[8] abbreviates: Table 5c, selectivity, hCTR bind IC50 / hAmylin-R bind IC50.
Setting [9] is: Table 7, human binding selectivity, included for comparison.
The mark [10] stands for this setting: Table 7a (preferred compounds), human binding selectivity, included for comparison.
Setting [11] is: ratio of human calcitonin receptor binding IC50 to human amylin receptor binding IC50.
The mark [12] stands for this setting: hCTR funct. EC50 over hAmylin-R funct. EC50.

The pIC50 is −log10 of the IC50, conventionally taken in molar units.

For `CC[C@H](C)[C@H](NC(=O)[C@H](C)NC(=O)CNC(=O)[C@H](Cc1ccccc1)NC(=O)[C@H](CC(N)=O)NC(=O)[C@@H]1CCCN1C(=O)[C@H](CO)NC(=O)[C@H](CO)NC(=O)[C@H](Cc1c[nH]cn1)NC(=O)[C@H](CCCNC(=N)N)NC(=O)[C@H](CC(C)C)NC(=O)[C@H](Cc1ccccc1)NC(=O)[C@H](Cc1c[nH]cn1)NC(=O)[C@H](C)NC(=O)[C@H](CC(C)C)NC(=O)[C@H](CCCNC(=N)N)NC(=O)[C@H](CCC(N)=O)NC(=O)[C@@H](NC(=O)[C@H](C)NC(=O)[C@@H]1CSSC[C@H](NC(=O)[C@@H](N)CCCCNC(=O)CC[C@H](NC(=O)CCCCCCCCCCCCCCCCCCC(=O)O)C(=O)O)C(=O)N[C@@H](CC(N)=O)C(=O)N[C@@H]([C@@H](C)O)C(=O)N[C@@H](C)C(=O)N[C@@H]([C@@H](C)O)C(=O)N1)[C@@H](C)O)C(=O)N1CCC[C@H]1C(=O)N[C@@H](CO)C(=O)N[C@@H](CO)C(=O)N[C@H](C(=O)N[C@@H](CC(N)=O)C(=O)N[C@H](C(=O)NCC(=O)N1CCC[C@H]1C(=O)N[C@@H](CC(N)=O)C(=O)N[C@H](C(=O)N[C@@H](Cc1ccc(O)cc1)C(N)=O)[C@@H](C)O)C(C)C)[C@@H](C)O` [Example 67] (H-K([γGlu-C20 diacid])CNTATCATQRLAHFLRHSSPNFGAIPSSTNVGPNTY-NH2; disulfide 2-7 (inferred); N-terminus assumed), the “Ratio hCT/hAmylin funct.” value in experiment [1] (setting [3]) and in experiment [1] (setting [4]) was 5.2 throughout. Further, the “Ratio hCT/hAmylin binding” value in experiment [2] (setting [5]), in experiment [2] (setting [6]), in experiment [2] (setting [7]), in experiment [2] (setting [8]), in experiment [2] (setting [9]) and in experiment [2] (setting [10]) was 51.6 in each case. For the same compound, in experiment [2] (setting [11]), the “Ratio hCT/hAmylin binding” value stood at 51.6. Moreover, the pIC50 at rat calcitonin receptor was 7.83.
Consider `CC[C@H](C)[C@H](NC(=O)[C@H](C)NC(=O)CNC(=O)[C@H](Cc1ccccc1)NC(=O)[C@H](CC(N)=O)NC(=O)[C@@H]1CCCN1C(=O)[C@H](CO)NC(=O)[C@H](CO)NC(=O)[C@H](Cc1c[nH]cn1)NC(=O)[C@H](CCCNC(=N)N)NC(=O)[C@H](CC(C)C)NC(=O)[C@H](Cc1ccccc1)NC(=O)[C@H](CCC(=O)O)NC(=O)[C@H](C)NC(=O)[C@H](CC(C)C)NC(=O)[C@H](CCCNC(=N)N)NC(=O)[C@H](CCC(N)=O)NC(=O)[C@@H](NC(=O)[C@H](C)NC(=O)[C@@H]1CSSC[C@H](NC(=O)[C@@H](N)CCCCNC(=O)CC[C@H](NC(=O)CC[C@H](NC(=O)CCCCCCCCCCCCCCCCCCC(=O)O)C(=O)O)C(=O)O)C(=O)N[C@@H](CC(N)=O)C(=O)N[C@@H]([C@@H](C)O)C(=O)N[C@@H](C)C(=O)N[C@@H]([C@@H](C)O)C(=O)N1)[C@@H](C)O)C(=O)N1CCC[C@H]1C(=O)N[C@@H](CO)C(=O)N[C@@H](CO)C(=O)N[C@H](C(=O)N[C@@H](CC(N)=O)C(=O)N[C@H](C(=O)NCC(=O)N[C@@H](Cc1c[nH]cn1)C(=O)N[C@@H](CCC(=O)O)C(=O)N[C@H](C(=O)N[C@@H](Cc1ccc(O)cc1)C(N)=O)[C@@H](C)O)C(C)C)[C@@H](C)O` [Example 104] (H-K([γGlu-γGlu-C20 diacid])CNTATCATQRLAEFLRHSSPNFGAIPSSTNVGHETY-NH2; disulfide 2-7; N-terminus assumed), for which the “Ratio hCT/hAmylin funct.” value in experiment [1] (setting [3]), in experiment [1] (setting [12]) and in experiment [1] (setting [4]) was 15.8 throughout. For the same compound, the “Ratio hCT/hAmylin binding” value in experiment [2] (setting [5]), in experiment [2] (setting [6]), in experiment [2] (setting [7]), in experiment [2] (setting [8]), in experiment [2] (setting [9]) and in experiment [2] (setting [10]) was 29.1 throughout. Further, the “Ratio hCT/hAmylin binding” value in experiment [2] (setting [11]) is recorded as 29.1. Moreover, on rat calcitonin receptor, the pIC50 is 6.30.
Consider `CC[C@H](C)[C@H](NC(=O)[C@H](C)NC(=O)CNC(=O)[C@H](Cc1ccccc1)NC(=O)[C@H](CC(N)=O)NC(=O)[C@@H]1CCCN1C(=O)[C@H](CO)NC(=O)[C@H](CO)NC(=O)[C@H](Cc1c[nH]cn1)NC(=O)[C@H](CCCNC(=N)N)NC(=O)[C@H](CC(C)C)NC(=O)[C@H](Cc1ccccc1)NC(=O)[C@H](Cc1c[nH]cn1)NC(=O)[C@H](C)NC(=O)[C@H](CC(C)C)NC(=O)[C@H](CCCNC(=N)N)NC(=O)[C@H](CCC(N)=O)NC(=O)[C@@H](NC(=O)[C@H](C)NC(=O)[C@@H]1CSSC[C@H](NC(=O)[C@@H](N)CCCCNC(=O)COCCOCCNC(=O)CC[C@H](NC(=O)CCCCCCCCCCCCCCCCCCC(=O)O)C(=O)O)C(=O)N[C@@H](CC(N)=O)C(=O)N[C@@H]([C@@H](C)O)C(=O)N[C@@H](C)C(=O)N[C@@H]([C@@H](C)O)C(=O)N1)[C@@H](C)O)C(=O)N1CCC[C@H]1C(=O)N[C@@H](CO)C(=O)N[C@@H](CO)C(=O)N[C@H](C(=O)N1CCC[C@H]1C(=O)N[C@H](C(=O)NCC(=O)N[C@@H](CO)C(=O)N[C@@H](CC(N)=O)C(=O)N[C@H](C(=O)N[C@@H](Cc1ccc(O)cc1)C(N)=O)[C@@H](C)O)C(C)C)[C@@H](C)O` [Example 61] (H-K([AEEA-γGlu-C20 diacid])CNTATCATQRLAHFLRHSSPNFGAIPSSTPVGSNTY-NH2; disulfide 2-7 (inferred)), for which the “Ratio hCT/hAmylin funct.” value in experiment [1] (setting [3]), in experiment [1] (setting [12]) and in experiment [1] (setting [4]) was 10.9 throughout. Further, the “Ratio hCT/hAmylin binding” value in experiment [2] (setting [5]), in experiment [2] (setting [6]), in experiment [2] (setting [7]), in experiment [2] (setting [8]), in experiment [2] (setting [9]) and in experiment [2] (setting [10]) was 66.7 in each case. For the same compound, the “Ratio hCT/hAmylin binding” value in experiment [2] (setting [11]) is on record as 66.7. Besides, on rat calcitonin receptor, the pIC50 was 7.48.
Regarding `CC[C@H](C)[C@H](NC(=O)[C@H](C)NC(=O)CNC(=O)[C@H](Cc1ccccc1)NC(=O)[C@H](CC(N)=O)NC(=O)[C@@H]1CCCN1C(=O)[C@H](CO)NC(=O)[C@H](CO)NC(=O)[C@H](Cc1c[nH]cn1)NC(=O)[C@H](CCCNC(=N)N)NC(=O)[C@H](CC(C)C)NC(=O)[C@H](Cc1ccccc1)NC(=O)[C@H](CCC(=O)O)NC(=O)[C@H](C)NC(=O)[C@H](CC(C)C)NC(=O)[C@H](CCCNC(=N)N)NC(=O)[C@H](CCC(N)=O)NC(=O)[C@@H](NC(=O)[C@H](C)NC(=O)[C@@H]1CSSC[C@H](NC(=O)[C@@H](N)CCCCNC(=O)CC[C@H](NC(=O)CCCCCCCCCCCCCCCCCCC(=O)O)C(=O)O)C(=O)N[C@@H](CC(N)=O)C(=O)N[C@@H]([C@@H](C)O)C(=O)N[C@@H](C)C(=O)N[C@@H]([C@@H](C)O)C(=O)N1)[C@@H](C)O)C(=O)N1CCC[C@H]1C(=O)N[C@@H](CO)C(=O)N[C@@H](CO)C(=O)N[C@H](C(=O)N[C@@H](CC(N)=O)C(=O)N[C@H](C(=O)NCC(=O)N1CCC[C@H]1C(=O)N[C@@H](CCCNC(=N)N)C(=O)N[C@H](C(=O)N[C@@H](Cc1ccc(O)cc1)C(N)=O)[C@@H](C)O)C(C)C)[C@@H](C)O` [Example 117] (H-K([γGlu-C20 diacid])CNTATCATQRLAEFLRHSSPNFGAIPSSTNVGPRTY-NH2; disulfide 2-7; N-terminus assumed), the “Ratio hCT/hAmylin funct.” value in experiment [1] (setting [3]), in experiment [1] (setting [12]) and in experiment [1] (setting [4]) was 17.0 in each case. In addition, the “Ratio hCT/hAmylin binding” value in experiment [2] (setting [5]), in experiment [2] (setting [6]), in experiment [2] (setting [7]), in experiment [2] (setting [8]), in experiment [2] (setting [9]) and in experiment [2] (setting [10]) was 38.6 each time. Besides, the “Ratio hCT/hAmylin binding” value in experiment [2] (setting [11]) is 38.6. The pIC50 on rat calcitonin receptor was 7.81.
